From PMC13538185, “The PSD-95 inhibitor NA-1 is delivered to the brain upon nasal administration with uptake into the olfactory bulb improved by co-administration with the cell-penetrating peptides lowPro and Tat” (Drug Delivery and Translational Research, 2025) come the findings set out here.

As a reminder, the tissue uptake is the percentage of the injected dose found per gram of tissue. Lower therefore signals little accumulation.

The subject of data set [1] is primary porcine olfactory epithelial monolayers. The data set is described as follows: Transepithelial electrical resistance (TEER) before and after peptide incubation. In kind it is cell-based. The following applies: 100 µM peptide, 3 h incubation, N = 3, n = 2. The text has this: Thereafter, the cells were equilibrated to RT prior measuring the TEER with a chopstick electrode or in an Endohm-24 cup connected to an Epithelial Volt/Ohm meter (both World Precision Instruments, Sarasota, FL, USA). The measured TEER values were subtracted the resistance across an empty Transwell insert and multiplied with the area of the insert (0.33 cm^2) to obtain the standardized unit Ω⋅cm^2.

Data set [2] relates to primary porcine olfactory epithelial cells. The data set is described as follows: Cellular metabolic activity (XTT assay). The conditions noted are these: 4 h incubation with 50 or 100 µM peptide in transport medium, 37 °C, N = 3, n = 3. In kind it is cell-based. The method, then: The cellular metabolic activity was assessed on olfactory epithelial cells cultured in a 96-well plate for 48 h using a commercially available sodium 3´-[1-(phenylaminocarbonyl)-3,4-tetrazolium]-bis (4-methoxy-6-nitro) benzene sulfonic acid hydrate (XTT) assay as directed by the manufacturer. […] Cells incubated with transport medium (MEM w/o phenol red, 0.05% BSA, 0.1 U/mL Penicillin, 0.1 µg/mL Streptomycin) without peptides served as live cell controls and wells with transport medium but no cells served as dead cell controls. After peptide incubation, the cells were gently washed twice with transport medium before incubation with 100 µL transport medium and 50 µL XTT labelling mixture (electron-coupling reagent: XTT labelling reagent 1:50) for 1 h at 37 °C with horizontal shaking (90 rpm). Samples (100 µL) from each well were transferred to a new 96-well plate and the absorbance was measured at 466 nm using a SPECTROstar Nano plate reader (BMG Labtech, Ortenberg, Germany). The relative cellular viability was calculated by Eq. 1:1
Background: Tetrazolium assays rely on reduction of a dye to a coloured formazan, in cell work by metabolically active cells.

For data set [3], the system named is primary porcine olfactory epithelial monolayers. The following applies: ALI 20-21 days, apical to basolateral, 0.5 mg/mL in transport medium (MEM, 0.05% BSA), 37 °C, fluorescence read-out, mean (N = 3-4, n = 3).
Protocol: Transport studies were performed on olfactory epithelial cell monolayers cultured for 20 or 21 days under ALI conditions. […] 50 µL samples were withdrawn at time points 0.5, 1, 1.5, 2, 3, 4, and 24 h into black clear-bottom 96-well plates. The sampling volume was immediately replaced with 37 °C transport medium. […] The experiments with NA-1 and the cell-penetrating peptides were initiated by gently applying 300 µL samples (50 µM NA-1 alone or co-administered with 50 µM Tat, LowPro, or PenShuf) in 37 °C transport buffer to the apical compartment. 75 µL samples were withdrawn at time points 1, 2, 3, and 16 h into glass vials. The sampling volume was immediately replaced with 37 °C transport buffer. NA-1 was labelled with selenomethionine (M^Se) between the Tat and the NR2B9c moiety to facilitate analysis through selenium quantification using inductively coupled plasma mass spectrometry (ICP-MS). For selenium analysis, the samples were subjected to flow injection analysis on a Dionex Ultimate 3000 UPLC (Thermo Fischer Scientific, Germering, Germany) with ICP-MS detection using an Agilent 8800 Triple Quad equipped with a 2.5 mm quartz torch with platinum sampler -and skimmer cones (Agilent Technologies, Santa Clara, CA, USA).
Data set [4] shares this test system. The data set is described as follows: Transport of NA-1 alone or co-administered with cell-penetrating peptides across primary porcine olfactory epithelial monolayers (ICP-MS of selenium). The class given is in vitro ADME. The text has this:
Oxygen was applied as reaction gas.

In data set [5] the test system is NMRI mice. The following applies: nasal.
Test in data set [6]: not given
This is another data set of the same source.

Test in data set [7]: not given
The source holds these as a separate data set.

Data set [8] in a line: Biodistribution after intravenous bolus injection to mice (reference group). The conditions noted are these: mouse, in vivo, iv, 3 nmol/g body weight.
Protocol: (§1) In an intravenous reference group, NA-1 was administered as a bolus injection (3 nmol/g body weight in 0.9% NaCl) into the tail vein. After 60 min compound circulation, the animals were transcardially perfused with 0.01 M PBS (pH 7.4). The brain, olfactory bulb, heart, lungs, spleen, kidneys, liver, and 2–3 cm of the upper part of duodenum were collected in 2 mL tubes and stored at -70 °C until analysis. […] The homogenate was spun down for 10 min at 14,000 rpm and 4 °C in a Sigma 1–15 K centrifuge (DJB Labcare, Newport Pagnell, England). […] Biodistribution of NA-1 was assessed by measuring the selenium content in tissue digested in HNO3 for 3–5 days at room temperature (50 mg tissue per 0.5 mL HNO3 for heart, lungs, spleen, kidney, and duodenum or 0.2 mL HNO3 for olfactory bulb and 1 mL HNO3 for the remaining brain. The tissue samples were spun down for 5 min at 10,000 rpm in a Sigma 1–15 K centrifuge (DJB Labcare, Newport Pagnell, England) before dilution (1:5–1:32) in 5% methanol with 0.1% trifluoroacetic acid in ultrapure water. The samples were analyzed with ICP-MS as described for transport studies, but with a 20 µL injection volume and a 2 min run time.
Data set [9] concerns NMRI mice. Described as above. The conditions noted are these: mice, 3 nmol/g, 1 h.
Protocol: as §1
The mark [10] stands for this setting: NA-1 alone, 3 nmol/g body weight, 1 h after administration, perfused, ICP-MS of selenium, mean (N = 4-6).

In the case of RWFKIQMQIRRWKNKK [PenShuf], in [1], the “Barrier integrity (TEER before vs after incubation), highest applied concentration” value is on record as “negatively affect the barrier integrity”.

Turning to `N=C(N)NCCC[C@H](NC(=O)[C@H](CCCNC(=N)N)NC(=O)[C@H](CCCNC(=N)N)NC(=O)[C@H](CCC(N)=O)NC(=O)[C@H](CCCNC(=N)N)NC(=O)[C@H](CCCNC(=N)N)NC(=O)[C@H](CCCCN)NC(=O)[C@H](CCCCN)NC(=O)[C@H](CCCNC(=N)N)NC(=O)CNC(=O)[C@@H](N)Cc1ccc(O)cc1)C(=O)O` [Tat], the “Cellular metabolic activity relative to cell culture media controls” value in data set [2] was “slight decrease”.

As for `O=C([O-])c1ccccc1-c1c2ccc(=O)cc-2oc2cc([O-])ccc12.[Na+].[Na+]` [sodium fluorescein], the “Fraction of applied compound permeated the barrier upon 24 h of incubation” value in data set [3] was determined as 29.3%.

Turning to `CC[C@H](C)[C@H](NC(=O)[C@H](CO)NC(=O)[C@H](CO)NC(=O)[C@H](CC(C)C)NC(=O)[C@H](CCCCN)NC(=O)[C@H](CC[Se]C)NC(=O)[C@@H](CCCNC(=N)N)NC(=O)[C@@H](CCCNC(=N)N)NC(=O)[C@@H](CCCNC(=N)N)NC(=O)[C@@H](CCC(N)=O)NC(=O)[C@@H](CCCNC(=N)N)NC(=O)[C@@H](CCCNC(=N)N)NC(=O)[C@@H](CCCCN)NC(=O)[C@@H](CCCCN)NC(=O)[C@@H](CCCNC(=N)N)NC(=O)CNC(=O)[C@H](N)Cc1ccc(O)cc1)C(=O)N[C@@H](CCC(=O)O)C(=O)N[C@@H](CO)C(=O)N[C@@H](CC(=O)O)C(=O)N[C@H](C(=O)O)C(C)C` [NA-1], the apparent permeability (Papp) of NA-1 co-administered with LowPro (× 10^− 6 cm/sec) turned out to be 0.22. The “Effect of co-administration with PenShuf on barrier permeation of NA-1 at the 16 h time-point” value in [4] (50 µM NA-1 + 50 µM PenShuf vs NA-1 alone, 16 h, ICP-MS, N = 6, p < 0.0001 one-way ANOVA) is “significantly improved”. For the same molecule, the “Fold better permeation potential of NA-1 compared to 4 KDa FITC-dextran” value in data set [4] (ratio of Papp values across primary porcine olfactory monolayers) is on record as 3.2 fold. In addition, the “Rank order of off-target tissue distribution” value in [5] (3 nmol/g, 1 h, not affected by co-administration with the cell-penetrating peptides) was “kidney > liver > spleen > duodenum > lung > heart”. In data set [5] (NA-1:LowPro 1:1 molar ratio, 3 nmol/g, 1 h, ICP-MS, mean (N = 4-6)), the “NA-1 accumulation in the olfactory bulb, co-administered with LowPro” value is 2.98 % administered dose/g. Further, the “NA-1 accumulation in the olfactory bulb, co-administered with PenShuf” value in [5] (NA-1:PenShuf 1:1 molar ratio, 3 nmol/g, 1 h, ICP-MS, mean (N = 4-6)) was determined as 1.63 % administered dose/g. The “NA-1 accumulation in the olfactory bulb, co-administered with Tat” value in [5] (NA-1:Tat 1:1 molar ratio, 3 nmol/g, 1 h, ICP-MS, mean (N = 4-6)) is 2.13 % administered dose/g. In [5] (setting [10]), the “NA-1 accumulation in the olfactory bulb” value amounted to 1.38 % administered dose/g and the “NA-1 accumulation in the remaining brain” value amounted to 0.54 % administered dose/g. In data set [5] (NA-1 alone, 1 h, p = 0.15 vs intravenous control), the “Combined amount of NA-1 reaching the olfactory bulb and the brain” value is on record as 1.92 % of administered dose/g. In addition, in data set [6], the apparent permeability (Papp) of NA-1 co-administered with PenShuf (× 10^− 6 cm/sec) was found to be 0.8. In data set [7], the apparent permeability (Papp) of NA-1 co-administered with Tat (× 10^− 6 cm/sec) was 0.09. This molecule gave a tissue uptake at 1 h in [8] of 1.57 %ID/g. In data set [9], the “Fold higher amount of NA-1 in duodenum, intravenous vs nasal administration” value was determined as 4.5 fold; the “Fold higher amount of NA-1 in kidneys, intravenous vs nasal administration” value was 9.5 fold; the “Fold higher amount of NA-1 in lungs, intravenous vs nasal administration” value stood at 2.8 fold; the “Fold higher amount of NA-1 in spleen, intravenous vs nasal administration” value is reported as 1.6 fold.
